Reference: the supplement of paper PMC10307832

Tests used:
Experiment in all cases: relative viability (nuclei count vs DMSO), 5 days (fraction); higher = more cells survive
BEN = tested on: BEN
Procedure, shortened: (§1)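 Lung cancer cell lines in 1536-well plates got either a single drug or a fixed anchor-drug dose together with five library-drug doses (not always all listed) in √10 steps, by pin tool, on the day after seeding. Nuclei were counted after 5 days, and relative viability is the treated-to-vehicle ratio of nuclei counts. Values are medians of duplicate plates.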

HOP-62 = tested on: HOP-62
Procedure, shortened: as §1

LXF-289 = tested on: LXF-289
Procedure, shortened: as §1

NCI-H650 = tested on: NCI-H650
Procedure, shortened: as §1

HARA = tested on: HARA
Procedure, shortened: as §1

LOU-NH91 = tested on: LOU-NH91
Procedure, shortened: as §1

HCC-78 = tested on: HCC-78
Procedure, shortened: as §1

SK-MES-1 = tested on: SK-MES-1
Procedure, shortened: as §1

NCI-H1563 = tested on: NCI-H1563
Procedure, shortened: as §1

COR-L 105 = tested on: COR-L 105
Procedure, shortened: as §1

NCI-H2087 = tested on: NCI-H2087
Procedure, shortened: as §1

H3255 = tested on: H3255
Procedure, shortened: as §1

In the case of `Cc1cn(-c2cc(NC(=O)c3ccc(C)c(Nc4nccc(-c5cccnc5)n4)c3)cc(C(F)(F)F)c2)cn1` [Nilotinib] + COc1cc2c(Oc3ccc(NC(=O)C4(C(=O)Nc5ccc(F)cc5)CC4)cc3F)ccnc2cc1OCCCN1CCOCC1 [Foretinib] (partner 0.25 µM), the relative viability (BEN; first compound 0.001 µM) is reported as 0.829, the relative viability (BEN; first compound 0.003162 µM) is reported as 0.674 and the relative viability (BEN; first compound 0.01 µM) is reported as 0.494. The relative viability (BEN; first compound 0.03162 µM) was 0.647, the relative viability (BEN; first compound 0.1 µM) was 0.285 and the relative viability (HOP-62; first compound 0.001 µM) was 0.802. It also gave a relative viability (HOP-62; first compound 0.003162 µM) of 1.16, a relative viability (HOP-62; first compound 0.01 µM) of 1.27 and a relative viability (HOP-62; first compound 0.03162 µM) of 0.831. It also gave a relative viability (HOP-62; first compound 0.1 µM) of 0.771, a relative viability (LXF-289; first compound 0.001 µM) of 0.968 and a relative viability (LXF-289; first compound 0.003162 µM) of 1.16. It also gave a relative viability (LXF-289; first compound 0.03162 µM) of 0.893, a relative viability (LXF-289; first compound 0.1 µM) of 0.761 and a relative viability (NCI-H650; first compound 0.001 µM) of 0.982. The relative viability (NCI-H650; first compound 0.003162 µM) was 0.999, the relative viability (NCI-H650; first compound 0.03162 µM) was 0.986 and the relative viability (NCI-H650; first compound 0.1 µM) was 1. It also gave a relative viability (HARA; first compound 0.001 µM) of 0.922, a relative viability (HARA; first compound 0.003162 µM) of 0.646 and a relative viability (HARA; first compound 0.01 µM) of 0.817. The relative viability (HARA; first compound 0.03162 µM) was 0.811, the relative viability (HARA; first compound 0.1 µM) was 0.943 and the relative viability (LOU-NH91; first compound 0.001 µM) was 0.995. It also gave a relative viability (LOU-NH91; first compound 0.003162 µM) of 0.961, a relative viability (LOU-NH91; first compound 0.01 µM) of 0.985 and a relative viability (LOU-NH91; first compound 0.03162 µM) of 0.935. The relative viability (LOU-NH91; first compound 0.1 µM) was 0.92, the relative viability (HCC-78; first compound 0.001 µM) was 0.636 and the relative viability (HCC-78; first compound 0.003162 µM) was 0.65. For the same compound, the relative viability (HCC-78; first compound 0.01 µM) was 0.719, the relative viability (HCC-78; first compound 0.03162 µM) was 0.577 and the relative viability (HCC-78; first compound 0.1 µM) was 0.59. It also gave a relative viability (SK-MES-1; first compound 0.003162 µM) of 1.13, a relative viability (SK-MES-1; first compound 0.01 µM) of 1.23 and a relative viability (SK-MES-1; first compound 0.03162 µM) of 0.904. It also gave a relative viability (SK-MES-1; first compound 0.1 µM) of 0.963, a relative viability (NCI-H1563; first compound 0.001 µM) of 0.933 and a relative viability (NCI-H1563; first compound 0.003162 µM) of 0.896. The relative viability (NCI-H1563; first compound 0.01 µM) was 0.875, the relative viability (NCI-H1563; first compound 0.03162 µM) was 0.852 and the relative viability (NCI-H1563; first compound 0.1 µM) was 0.891. The relative viability (COR-L 105; first compound 0.001 µM) was 1.08, the relative viability (COR-L 105; first compound 0.01 µM) was 1.45 and the relative viability (COR-L 105; first compound 0.03162 µM) was 0.99. The relative viability (COR-L 105; first compound 0.1 µM) was 0.99, the relative viability (NCI-H2087; first compound 0.001 µM) was 1.03 and the relative viability (NCI-H2087; first compound 0.003162 µM) was 1.16. For the same compound, the relative viability (NCI-H2087; first compound 0.01 µM) was 1.27, the relative viability (NCI-H2087; first compound 0.03162 µM) was 0.83 and the relative viability (NCI-H2087; first compound 0.1 µM) was 0.761. For the same compound, the relative viability (H3255; first compound 0.001 µM) was 0.943, the relative viability (H3255; first compound 0.003162 µM) was 1.06 and the relative viability (H3255; first compound 0.03162 µM) was 0.845.
